Source: PubChem BioAssay (NCI)
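These data come from cells grown in 96-well plates and exposed to compound for 48 hours at five concentrations. The concentration for full growth arrest is given as TGI.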

Experiments:
Assay in all cases: growth of human tumour cells (NCI), 48 h
786-0 renal = tested on: 786-0 renal
EKVX NSCLC = tested on: EKVX NSCLC
HCT-116 colon = tested on: HCT-116 colon
HT29 colon = tested on: HT29 colon
IGROV1 ovarian = tested on: IGROV1 ovarian
M14 melanoma = tested on: M14 melanoma
MCF7 breast = tested on: MCF7 breast
MDA-MB-231 breast = tested on: MDA-MB-231 breast
OVCAR-5 ovarian = tested on: OVCAR-5 ovarian
RXF 393 renal = tested on: RXF 393 renal
SF-295 CNS = tested on: SF-295 CNS
SR leukemia = tested on: SR leukemia
HL-60(TB) leukemia = tested on: HL-60(TB) leukemia
MALME-3M melanoma = tested on: MALME-3M melanoma
NCI-H522 lung = tested on: NCI-H522 lung
OVCAR-3 ovarian = tested on: OVCAR-3 ovarian
RPMI-8226 leukemia = tested on: RPMI-8226 leukemia
MDA-N = tested on: MDA-N

Compound | TGI (786-0 renal) [µM] | TGI (EKVX NSCLC) [µM] | TGI (HCT-116 colon) [µM] | TGI (HT29 colon) [µM] | TGI (IGROV1 ovarian) [µM] | TGI (M14 melanoma) [µM] | TGI (MCF7 breast) [µM] | TGI (MDA-MB-231 breast) [µM] | TGI (OVCAR-5 ovarian) [µM] | TGI (RXF 393 renal) [µM] | TGI (SF-295 CNS) [µM] | TGI (SR leukemia) [µM] | TGI (HL-60(TB) leukemia) [µM] | TGI (MALME-3M melanoma) [µM] | TGI (NCI-H522 lung) [µM] | TGI (OVCAR-3 ovarian) [µM] | TGI (RPMI-8226 leukemia) [µM] | TGI (MDA-N) [µM]
COc1cc2c(c(N)c1OC)C(=O)/C(=C/c1cc(C)c(O)c(C)c1)C2 | > 100 | > 100 | 2.24 | > 100 | > 100 | > 100 | > 100 | > 100 | > 100 | > 100 | > 55.6 | > 100 | – | – | – | – | – | –
COc1ccc(N2C(=O)CSC2c2cc3cc(Br)ccc3nc2Cl)cc1 (configuration not stated) | > 50 | > 50 | > 50 | > 50 | > 50 | > 50 | > 50 | > 50 | > 50 | > 50 | > 50 | > 50 | > 50 | > 50 | > 50 | > 50 | > 50 | –
CC1=NN(c2nc(N)nc(C(C)Sc3cc(Cl)c(C)cc3S(N)(=O)=O)n2)C(C)(C)C1 (configuration not stated) | > 10 | > 10 | > 10 | > 10 | > 10 | > 10 | > 10 | – | > 10 | > 10 | > 10 | > 10 | > 10 | > 10 | > 10 | > 10 | > 10 | > 10
C=CC1(c2ccc3ccccc3c2)OCC(CC)(CC)CO1 | 50.9 | – | 43.2 | 57.5 | 52.3 | 60.6 | 56.2 | 33.9 | 38.5 | 36.2 | 65.2 | – | 41.4 | 49.1 | 50.9 | 51.5 | 80.4 | 65.8
Cc1ccc(S(=O)(=O)NC(=O)C2(Br)S(=O)(=O)OCCOS2(=O)=O)cc1 | > 100 | > 100 | > 100 | > 100 | > 100 | > 100 | – | – | > 100 | > 100 | – | > 100 | > 100 | > 100 | > 100 | > 100 | > 100 | –
COc1cc(COC(=O)N2CCCCC2C(=O)O)c([N+](=O)[O-])cc1OC (configuration not stated) | > 100 | > 100 | > 100 | > 100 | > 100 | > 100 | > 100 | – | > 100 | > 100 | > 100 | > 100 | > 100 | > 100 | – | > 100 | > 100 | > 100
CN(C)C(=S)N/N=C\C(=N/NC(=S)N(C)C)c1ccccc1 | > 100 | > 100 | > 46.5 | > 100 | > 48.2 | > 100 | > 38.8 | > 100 | > 100 | > 27.8 | > 100 | – | – | > 57.5 | 9.86 | > 23.4 | > 100 | > 100
Cc1nc2c(=O)[nH]c3ccccc3c2o1 | > 100 | > 100 | > 100 | > 100 | > 100 | > 100 | > 100 | > 100 | > 100 | > 100 | > 100 | – | > 100 | > 100 | – | > 100 | > 100 | > 100
O=c1n(CCCN2CCN(c3cccc(Cl)c3)CC2)nc2n1-c1ccc3ccccc3c1SC2 | > 100 | > 100 | > 100 | > 100 | > 100 | – | > 100 | – | > 100 | > 100 | > 100 | > 100 | > 100 | – | > 100 | > 100 | > 100 | > 100
CC(C)=CCC/C(C)=C/CC/C(C)=C/CC/C=C(\C)CC/C=C(\C)CCC1SC1(C)C (configuration not stated) | > 100 | > 100 | > 100 | > 100 | > 100 | > 100 | – | – | > 100 | > 100 | > 100 | – | > 100 | > 100 | > 100 | – | > 100 | –
CC(N)C(=O)c1ccc(O)cc1 (configuration not stated) | > 100 | > 100 | > 100 | > 100 | > 100 | > 100 | – | – | > 100 | > 100 | > 100 | – | > 100 | > 100 | > 100 | > 100 | > 100 | –
CC1=C2C(=O)C3[C@@H](CCC4=CC(=O)CC[C@@]43C)C2CC[C@]12O[C@@H]1C[C@H](C)CN[C@H]1[C@H]2C (some centres not stated) | > 100 | > 100 | > 100 | > 100 | > 100 | > 100 | – | – | – | > 100 | > 100 | 43.4 | 28.2 | – | 37.1 | > 100 | 49.7 | –
CSC(=NC1CC(n2cc(C)c(=O)[nH]c2=O)OC1CO)NC#N (configuration not stated) | > 100 | > 100 | > 100 | > 100 | > 100 | > 100 | > 100 | > 100 | > 100 | > 100 | > 100 | – | > 100 | > 100 | > 100 | > 100 | – | > 100
Cc1[nH]c2ncn3ncnc3c2c1Cc1ccccc1 | > 100 | > 100 | > 100 | > 100 | > 100 | > 100 | > 100 | > 100 | > 100 | > 100 | > 100 | – | > 100 | > 100 | > 100 | > 100 | – | > 100
C=C[C@@]1(C)CC2CC[C@]3(C)C(C)=CC(=O)CC3[C@]2(C)CC1O (some centres not stated) | > 100 | > 100 | > 100 | > 100 | > 100 | > 100 | > 100 | – | > 100 | > 100 | > 100 | > 100 | 82 | > 100 | 74.4 | > 100 | > 100 | –
